Here are results for 4 molecules from publication PMC3205185, “Identification of a Eukaryotic Reductive Dechlorinase and Characterization of Its Mechanism of Action on Its Natural Substrate” (Chemistry & Biology, 2011).

Substitutions are numbered along the chain they refer to.

The target of data set [1] is T1, DrcA (ΔNC16NDrcA) (Dictyostelium discoideum, UniProt Q54B85, C54N).
T1 construct: gene DDB_G0293840; ΔNDrcA, lacking the first 38 residues
T1 sequence (Q54B85 39-275 C54N): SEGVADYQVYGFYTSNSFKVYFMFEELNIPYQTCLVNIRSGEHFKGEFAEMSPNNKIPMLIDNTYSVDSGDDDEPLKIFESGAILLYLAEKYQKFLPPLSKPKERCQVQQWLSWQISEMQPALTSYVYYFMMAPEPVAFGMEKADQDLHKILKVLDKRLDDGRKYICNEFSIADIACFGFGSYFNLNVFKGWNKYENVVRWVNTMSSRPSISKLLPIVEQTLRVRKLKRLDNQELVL
The data set can be described thus: dechlorination assay with purified mutant, TLC and Orbitrap MS of the conjugates. The data set is classed as biochemical.

In data set [2] the target is T1, DrcA (ΔNC16NDrcA). The data set can be described thus: TLC time course and Orbitrap MS of products of the purified mutant; further converted to GS-DIF-GS. The data set is classed as biochemical.
In data set [3] the target is T2, DrcA (DIF-1 dechlorinase) (Dictyostelium discoideum, UniProt Q54B85).
T2 construct: gene DDB_G0293840
T2 sequence (Q54B85 1-275): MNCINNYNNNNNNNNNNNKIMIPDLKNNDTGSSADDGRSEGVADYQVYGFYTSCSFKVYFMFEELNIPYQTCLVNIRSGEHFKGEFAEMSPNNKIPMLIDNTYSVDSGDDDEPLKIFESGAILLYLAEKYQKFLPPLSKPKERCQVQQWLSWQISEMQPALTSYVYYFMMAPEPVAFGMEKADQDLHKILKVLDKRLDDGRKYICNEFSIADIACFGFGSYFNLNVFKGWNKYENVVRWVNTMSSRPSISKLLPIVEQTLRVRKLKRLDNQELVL
Kind of data set: DIF-1 dechlorination assay with TLC, purified protein; further dechlorinated at higher enzyme or longer incubation. The data set is classed as biochemical.

Substrate in data set [4]: CCCCCC(=O)c1c(O)c(Cl)c(OC)c(Cl)c1O
Kind of data set: radioactive [3H]DIF-1 dechlorination assay with TLC, Michaelis-Menten kinetics, purified enzyme (Km). The conditions noted are these: glutathione glutathione attacks the carbon-chlorine bond to give a GS-DIF conjugate, which is resolved by Cys54. The data set is classed as biochemical, Dictyostelium discoideum.

As for `CCCCCC(=O)c1c(O)c(Cl)c(OC)c(Cl)c1O` [DIF-1], the “dechlorination assay with purified mutant, TLC and Orbitrap MS of the conjugates” value on DrcA (ΔNC16NDrcA) [1] is reported as “although DIF-1 was consumed in the assay, DIF-3 was not produced”.

On to `CCCCCC(=O)c1c(O)c(Cl)c(OC)c(SC[C@H](NC(=O)CC[C@H](N)C(=O)O)C(=O)NCC(=O)O)c1O` [GS-DIF], for which the “TLC time course and Orbitrap MS of products of the purified mutant; further conv” value on DrcA (ΔNC16NDrcA) [2] was “ΔNC16NDrcA must be able to accommodate the conjugate GS-DIF to attack the second carbon-chlorine bond”.

As to `CCCCCC(=O)c1c(O)cc(OC)c(Cl)c1O` [DIF-3], the “DIF-1 dechlorination assay with TLC, purified protein; further dechlorinated at” value in data set [3] is reported as “only appears after all DIF-1 has been converted into the monochlorinated form, suggesting a lower affinity”.

B1: DrcA (DIF-1 dechlorinase) (Dictyostelium discoideum) (protein)
chain: T1 sequence (Q54B85 39-275 C54N) with N16C
notes: ΔNDrcA, lacking the first 38 residues, C-terminal 6×His tag
As to B1, in data set [4], the Km is 0.088 ± 0.0175 µM, the kcat is 6.7 s⁻¹ and the kcat/Km came to 7.6e+07 M⁻¹ s⁻¹.
